Experiments:
Experiment in all cases: biochemical
Design in all cases: radiometric methyltransferase selectivity assay with tritiated SAM, per cent activity
Conditions in all cases: read-out: % of control remaining
GLP = target: T1, GLP (Homo sapiens, UniProt Q9H9B1)
T1 construct: gene EHMT1
T1 sequence (Q9H9B1 1-1298): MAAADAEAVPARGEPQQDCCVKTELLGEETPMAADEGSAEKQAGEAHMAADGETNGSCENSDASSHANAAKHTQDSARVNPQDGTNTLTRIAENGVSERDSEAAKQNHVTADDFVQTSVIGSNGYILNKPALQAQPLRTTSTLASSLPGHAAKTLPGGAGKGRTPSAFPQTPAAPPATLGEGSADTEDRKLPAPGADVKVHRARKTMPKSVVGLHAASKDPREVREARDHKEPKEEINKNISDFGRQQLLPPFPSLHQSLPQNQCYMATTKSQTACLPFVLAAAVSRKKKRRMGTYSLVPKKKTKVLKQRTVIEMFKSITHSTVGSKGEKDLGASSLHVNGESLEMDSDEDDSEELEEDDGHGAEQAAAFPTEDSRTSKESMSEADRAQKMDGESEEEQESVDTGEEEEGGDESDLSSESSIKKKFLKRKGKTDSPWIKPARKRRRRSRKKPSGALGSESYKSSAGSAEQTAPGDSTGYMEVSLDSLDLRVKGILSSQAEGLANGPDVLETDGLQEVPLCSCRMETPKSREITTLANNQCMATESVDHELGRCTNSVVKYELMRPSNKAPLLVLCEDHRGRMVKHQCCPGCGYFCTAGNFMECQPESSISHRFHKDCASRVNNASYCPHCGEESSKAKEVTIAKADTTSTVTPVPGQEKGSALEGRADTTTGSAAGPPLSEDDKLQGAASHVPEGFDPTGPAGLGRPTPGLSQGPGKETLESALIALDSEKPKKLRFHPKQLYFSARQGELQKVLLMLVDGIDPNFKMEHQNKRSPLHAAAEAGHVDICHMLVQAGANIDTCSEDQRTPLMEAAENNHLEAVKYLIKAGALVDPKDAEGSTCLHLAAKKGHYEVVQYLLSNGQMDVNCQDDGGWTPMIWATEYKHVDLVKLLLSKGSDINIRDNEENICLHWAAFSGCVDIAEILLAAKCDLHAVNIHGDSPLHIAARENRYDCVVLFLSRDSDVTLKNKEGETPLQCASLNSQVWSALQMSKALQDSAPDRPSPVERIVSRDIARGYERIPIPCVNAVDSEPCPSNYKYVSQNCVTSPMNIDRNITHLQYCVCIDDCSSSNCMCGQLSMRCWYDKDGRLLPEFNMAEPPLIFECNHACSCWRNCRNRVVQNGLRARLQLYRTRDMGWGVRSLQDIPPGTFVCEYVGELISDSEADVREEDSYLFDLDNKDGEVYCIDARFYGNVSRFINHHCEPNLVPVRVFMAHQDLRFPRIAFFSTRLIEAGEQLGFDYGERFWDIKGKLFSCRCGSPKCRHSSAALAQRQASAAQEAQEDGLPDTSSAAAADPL
Experimental: (§1) The methyltransferase selectivity was assessed at two compound concentrations of 1 and 10 μM by radiometric assays using tritiated-SAM. For methyltransferases: MLL1, MLL3, EZH1 (PRC2), and EZH2 (PRC2), G9a, GLP, SUV39H1, SUV39H2, SUV420H1, SUV420H2, SETD2, SETD8, SETDB1, SETD7, PRMT1, PRMT3, PRMT4, PRMT5/ MEP50 complex, PRMT6, PRMT7, PRMT8, PRMT9, PRDM9, SMYD2, SMYD3, DNMT1, and BCDIN3D the incorporation of a tritium-labeled methyl group into biotinylated substrate was monitored using scintillation proximity assay (SPA). Briefly, a 10 μL reaction containing ^3H-SAM and substrate at concentrations close to the apparent Km values for each enzyme (balanced conditions) was prepared. The reactions were quenched with 10 μL of 7.5 M guanidine hydrochloride; 180 μL of 20 mM Tris buffer (pH 8.0) were added, and the mixture was transferred to a 96-well FlashPlate and incubated for 1 h. The counts per minute (CPM) was measured on a TopCount plate reader. The CPM in the absence of compound or enzyme was defined as 100% activity and background (0%), respectively, for each dataset[74]–[76]. Selectivity of SGC8158 against 342 kinases was evaluated in a kinase panel TR-FRET assay at 1 and 0.1 μM compound in duplicates as described before. Briefly, tagged kinases were incubated with compound and staurosporine-based fluorescent probe where the binding was detected using Tb conjugated anti-tag antibody energy transfer to the probe. Excitation wavelength was 337 nm and fluorescent emission signal was measured for Tb (486 nm) and fluorescent probe (BODIPY, 515 nm). Specific and non-specific binding was determined in the absence and presence of unlabeled staurosporine.

SETD8 = target: T2, SETD8 (Homo sapiens, UniProt Q9NQR1)
T2 construct: gene KMT5A
T2 sequence (Q9NQR1 1-393): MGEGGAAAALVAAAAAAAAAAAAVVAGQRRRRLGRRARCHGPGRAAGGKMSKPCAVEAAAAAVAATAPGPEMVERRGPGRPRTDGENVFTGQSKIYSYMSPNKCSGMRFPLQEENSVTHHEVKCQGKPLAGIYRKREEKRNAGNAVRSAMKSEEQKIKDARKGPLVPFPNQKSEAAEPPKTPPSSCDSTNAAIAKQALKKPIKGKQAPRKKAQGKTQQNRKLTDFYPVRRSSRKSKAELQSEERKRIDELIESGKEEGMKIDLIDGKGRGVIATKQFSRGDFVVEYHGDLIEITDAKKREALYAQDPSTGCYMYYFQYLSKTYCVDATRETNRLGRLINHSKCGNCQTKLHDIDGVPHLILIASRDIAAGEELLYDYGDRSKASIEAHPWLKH
Experimental: as §1

PRMT1 = PRMT1 (Homo sapiens, UniProt Q99873)
PRMT1, sequence (Q99873 whole entry): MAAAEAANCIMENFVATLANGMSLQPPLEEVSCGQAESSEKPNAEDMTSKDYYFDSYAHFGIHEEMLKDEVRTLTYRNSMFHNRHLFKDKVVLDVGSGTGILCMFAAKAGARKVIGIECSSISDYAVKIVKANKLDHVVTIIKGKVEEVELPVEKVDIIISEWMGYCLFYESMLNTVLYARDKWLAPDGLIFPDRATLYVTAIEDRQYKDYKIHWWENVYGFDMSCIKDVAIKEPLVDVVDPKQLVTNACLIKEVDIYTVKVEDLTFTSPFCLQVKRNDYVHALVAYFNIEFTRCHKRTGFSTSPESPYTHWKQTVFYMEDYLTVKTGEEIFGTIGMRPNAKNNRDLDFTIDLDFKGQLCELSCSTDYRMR
Experimental: as §1

DNMT3A/3L = DNMT3A/3L (Homo sapiens, UniProt Q9Y6K1)
Experimental: as §1

DNMT3B/3L = DNMT3B/3L (Homo sapiens, UniProt Q9UBC3)
Experimental: as §1

Compound | remaining activity at 1 µM (GLP) | remaining activity at 10 µM (GLP) | remaining activity at 1 µM (SETD8) | remaining activity at 10 µM (SETD8) | remaining activity at 1 µM (PRMT1) | remaining activity at 10 µM (PRMT1) | remaining activity at 1 µM (DNMT3A/3L) | remaining activity at 10 µM (DNMT3A/3L) | remaining activity at 1 µM (DNMT3B/3L) | remaining activity at 10 µM (DNMT3B/3L)
Nc1ncnc2c1ncn2[C@@H]1O[C@H](CSCCCCNCc2cccc(-c3ccc(Cl)cc3)c2)[C@@H](O)[C@H]1O [SGC8158] | 99% | 95% | 101% | 102% | 104% | 67% | 100% | 99% | 100% | 101%
CC1(C)O[C@@H]2[C@H](O1)[C@@H](CSCCCCNCc1cccc(-c3ccc(Cl)cc3)c1)O[C@H]2n1cnc2c(N)ncnc21 [SGC8158N] | 95% | 90% | 99% | 100% | 94% | 91% | 100% | 99% | 104% | 103%

Source: article PMC7224190, “Pharmacological inhibition of PRMT7 links arginine monomethylation to the cellular stress response” (Nature Communications, 2020)
